{"source": "ChEMBL document CHEMBL4387741", "about": "“Optimization of novel reversible Bruton's tyrosine kinase inhibitors identified using Tethering-fragment-based screens” (Bioorg Med Chem, 2019)", "key": {"[1]": {"molecular_target": "Serine/threonine-protein kinase DCLK3 (Homo sapiens) (UniProt Q9C098)", "experiment": "Inhibition of wild-type human partial length DCAMKL3 (E140 to V628 residues) expressed in bacterial expression system at 1 uM by Kinomescan method relative to control"}, "[2]": {"molecular_target": "Serine/threonine-protein kinase TAO1 (Homo sapiens) (UniProt Q7L7X3)", "experiment": "Inhibition of wild-type human partial length TAOK1 (M1 to A320 residues) expressed in mammalian expression system at 1 uM by Kinomescan method relative to control"}, "[3]": {"molecular_target": "Casein kinase I isoform alpha (Homo sapiens) (UniProt P48729)", "experiment": "Inhibition of wild-type human partial length CSNK1A1 (M1 to L450 residues) expressed in mammalian expression system at 1 uM by Kinomescan method relative to control"}, "[4]": {"molecular_target": "Tyrosine-protein kinase ABL1 (Homo sapiens) (UniProt P00519)", "experiment": "Inhibition of wild-type human phosphorylated ABL1 (S229 to K512 residues) expressed in mammalian expression system at 1 uM by Kinomescan method relative to control"}, "[5]": {"molecular_target": "Casein kinase II subunit alpha (Homo sapiens) (UniProt P68400)", "sequence (P68400 whole entry, looked up, the tested form may be a part)": "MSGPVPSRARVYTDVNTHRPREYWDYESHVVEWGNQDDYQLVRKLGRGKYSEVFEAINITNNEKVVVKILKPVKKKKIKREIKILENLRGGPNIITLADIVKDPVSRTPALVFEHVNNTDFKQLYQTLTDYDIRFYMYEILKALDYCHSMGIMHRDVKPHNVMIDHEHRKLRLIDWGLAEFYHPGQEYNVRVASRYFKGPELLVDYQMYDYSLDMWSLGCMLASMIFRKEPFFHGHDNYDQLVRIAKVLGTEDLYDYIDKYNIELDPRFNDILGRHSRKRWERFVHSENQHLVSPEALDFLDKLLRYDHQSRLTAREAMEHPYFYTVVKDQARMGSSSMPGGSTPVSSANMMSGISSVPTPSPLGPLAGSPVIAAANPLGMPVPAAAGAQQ", "experiment": "Inhibition of wild-type human full length CSNK2A1 (M1 to Q391 residues) expressed in mammalian expression system at 1 uM by Kinomescan method relative to control"}, "[6]": {"molecular_target": "Serine/threonine-protein kinase TAO2 (Homo sapiens) (UniProt Q9UL54)", "experiment": "Inhibition of wild-type human partial length TAOK2 (M1 to A320 residues) expressed in mammalian expression system at 1 uM by Kinomescan method relative to control"}, "[7]": {"molecular_target": "Mitogen-activated protein kinase 11 (Homo sapiens) (UniProt Q15759)", "experiment": "Inhibition of wild-type human full length p38-beta (M1 to Q364 residues) expressed in bacterial expression system at 1 uM by Kinomescan method relative to control"}, "[8]": {"molecular_target": "Serine/threonine-protein kinase RIO2 (Homo sapiens) (UniProt Q9BVS4)", "experiment": "Inhibition of wild-type human partial length RIOK2 (M1 to D313 residues) expressed in mammalian expression system at 1 uM by Kinomescan method relative to control"}, "[9]": {"molecular_target": "Interleukin-1 receptor-associated kinase 3 (Homo sapiens) (UniProt Q9Y616)", "sequence (Q9Y616 whole entry, the tested form may be a part)": "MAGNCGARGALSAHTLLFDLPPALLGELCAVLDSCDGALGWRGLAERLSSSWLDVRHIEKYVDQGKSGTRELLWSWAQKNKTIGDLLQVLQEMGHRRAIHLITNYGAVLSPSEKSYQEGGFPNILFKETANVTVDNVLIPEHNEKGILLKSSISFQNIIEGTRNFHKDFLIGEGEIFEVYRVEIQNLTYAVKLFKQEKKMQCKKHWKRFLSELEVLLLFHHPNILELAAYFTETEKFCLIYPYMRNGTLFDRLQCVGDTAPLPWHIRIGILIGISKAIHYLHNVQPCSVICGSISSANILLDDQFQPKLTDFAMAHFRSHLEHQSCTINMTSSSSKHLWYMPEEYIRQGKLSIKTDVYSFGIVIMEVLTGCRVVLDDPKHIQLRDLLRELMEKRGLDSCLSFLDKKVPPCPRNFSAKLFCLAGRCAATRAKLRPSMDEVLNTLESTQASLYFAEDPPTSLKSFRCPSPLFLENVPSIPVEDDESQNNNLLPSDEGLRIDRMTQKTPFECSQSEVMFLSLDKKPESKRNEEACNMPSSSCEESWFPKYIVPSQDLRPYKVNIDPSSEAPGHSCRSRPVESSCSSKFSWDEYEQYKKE", "experiment": "Inhibition of wild-type human partial length IRAK3 (V147 to E596 residues) expressed in bacterial expression system at 1 uM by Kinomescan method relative to control"}, "[10]": {"molecular_target": "Macrophage colony-stimulating factor 1 receptor (Homo sapiens) (UniProt P07333)", "experiment": "Inhibition of wild-type human partial length autoinhibited CSF1R (Y538 to S939 residues) expressed in mammalian expression system at 1 uM by Kinomescan method relative to control"}, "[11]": {"molecular_target": "Tyrosine-protein kinase FRK (Homo sapiens) (UniProt P42685)", "experiment": "Inhibition of wild-type human partial length FRK (A215 to F503 residues) expressed in bacterial expression system at 1 uM by Kinomescan method relative to control"}, "[12]": {"molecular_target": "Beta-adrenergic receptor kinase 1 (Homo sapiens) (UniProt P25098)", "experiment": "Inhibition of wild-type human full length GRK2 (M1 to L689 residues) expressed in mammalian expression system at 10 uM by Kinomescan method relative to control"}, "[13]": {"molecular_target": "Serine/threonine-protein kinase SIK3 (Homo sapiens) (UniProt Q9Y2K2)", "experiment": "Inhibition of wild-type human partial length QSK (A90 to L395 residues) expressed in mammalian expression system at 10 uM by Kinomescan method relative to control"}, "[14]": {"molecular_target": "Tyrosine-protein kinase Fes/Fps (Homo sapiens) (UniProt P07332)", "experiment": "Inhibition of wild-type human partial length FES (I527 to R822 residues) expressed in bacterial expression system at 10 uM by Kinomescan method relative to control"}, "[15]": {"tested_on": "Tyrosine-protein kinase ABL1 (Homo sapiens), P00519 [Q252H]", "experiment": "Inhibition of human phosphorylated ABL1 Q252H mutant expressed in mammalian expression system at 10 uM by Kinomescan method relative to control"}, "[16]": {"molecular_target": "Serine/threonine-protein kinase D1 (Homo sapiens) (UniProt Q15139)", "experiment": "Inhibition of wild-type human partial length PRKD1 (G551 to E870 residues) expressed in bacterial expression system at 10 uM by Kinomescan method relative to control"}, "[17]": {"molecular_target": "Receptor-type tyrosine-protein kinase FLT3 (Homo sapiens) (UniProt P36888)", "experiment": "Inhibition of wild-type human partial length FLT3 (V592 to Y969 residues) expressed in bacterial expression system at 10 uM by Kinomescan method relative to control"}, "[18]": {"molecular_target": "Dual specificity tyrosine-phosphorylation-regulated kinase 1A (Homo sapiens) (UniProt Q13627)", "experiment": "Inhibition of wild-type human partial length DYRK1A (H129 to S509 residues) expressed in mammalian expression system at 10 uM by Kinomescan method relative to control"}, "[19]": {"tested_on": "Hepatocyte growth factor receptor (Homo sapiens), P08581 [Y1235D]", "experiment": "Inhibition of human partial length MET Y1235D mutant (D1010 to S1367 residues) expressed in bacterial expression system at 10 uM by Kinomescan method relative to control"}, "[20]": {"tested_on": "Epidermal growth factor receptor (Homo sapiens), P00533 [T790M]", "sequence (P00533 whole entry T790M, the tested form may be a part)": "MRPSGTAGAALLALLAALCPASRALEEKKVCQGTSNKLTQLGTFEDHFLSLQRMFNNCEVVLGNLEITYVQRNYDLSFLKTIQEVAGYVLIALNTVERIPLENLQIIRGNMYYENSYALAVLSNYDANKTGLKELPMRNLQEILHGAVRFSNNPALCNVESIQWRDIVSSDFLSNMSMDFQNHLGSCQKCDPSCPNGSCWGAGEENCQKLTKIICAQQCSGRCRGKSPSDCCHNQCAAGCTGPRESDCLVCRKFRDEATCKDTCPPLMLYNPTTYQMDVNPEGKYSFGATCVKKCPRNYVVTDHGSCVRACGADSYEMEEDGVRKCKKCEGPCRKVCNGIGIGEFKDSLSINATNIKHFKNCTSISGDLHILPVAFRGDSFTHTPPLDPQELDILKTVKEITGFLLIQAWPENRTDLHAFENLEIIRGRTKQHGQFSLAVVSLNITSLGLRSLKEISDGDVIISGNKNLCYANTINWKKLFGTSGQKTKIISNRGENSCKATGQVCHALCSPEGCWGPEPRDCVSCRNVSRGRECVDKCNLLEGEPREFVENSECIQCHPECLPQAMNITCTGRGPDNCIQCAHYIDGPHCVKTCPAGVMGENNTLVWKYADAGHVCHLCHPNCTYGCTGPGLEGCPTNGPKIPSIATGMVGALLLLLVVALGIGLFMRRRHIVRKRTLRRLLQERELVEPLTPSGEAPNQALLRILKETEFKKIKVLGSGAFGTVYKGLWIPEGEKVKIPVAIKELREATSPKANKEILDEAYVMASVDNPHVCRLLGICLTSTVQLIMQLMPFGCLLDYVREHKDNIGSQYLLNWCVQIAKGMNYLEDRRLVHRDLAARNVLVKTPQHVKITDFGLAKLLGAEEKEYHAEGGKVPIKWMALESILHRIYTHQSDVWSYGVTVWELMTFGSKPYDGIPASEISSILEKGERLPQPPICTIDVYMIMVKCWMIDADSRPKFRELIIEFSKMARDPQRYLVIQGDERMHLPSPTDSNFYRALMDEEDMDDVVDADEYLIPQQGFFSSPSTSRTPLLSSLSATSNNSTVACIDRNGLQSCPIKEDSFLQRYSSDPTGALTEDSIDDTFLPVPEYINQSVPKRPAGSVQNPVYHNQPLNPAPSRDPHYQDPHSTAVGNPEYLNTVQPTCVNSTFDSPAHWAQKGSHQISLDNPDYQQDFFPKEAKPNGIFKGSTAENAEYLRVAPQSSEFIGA", "experiment": "Inhibition of human partial length EGFR T790M mutant (R669 to G1022 residues) expressed in mammalian expression system at 10 uM by Kinomescan method relative to control"}, "[21]": {"molecular_target": "Serine/threonine-protein kinase MRCK gamma (Homo sapiens) (UniProt Q6DT37)", "sequence (Q6DT37 whole entry, the tested form may be a part)": "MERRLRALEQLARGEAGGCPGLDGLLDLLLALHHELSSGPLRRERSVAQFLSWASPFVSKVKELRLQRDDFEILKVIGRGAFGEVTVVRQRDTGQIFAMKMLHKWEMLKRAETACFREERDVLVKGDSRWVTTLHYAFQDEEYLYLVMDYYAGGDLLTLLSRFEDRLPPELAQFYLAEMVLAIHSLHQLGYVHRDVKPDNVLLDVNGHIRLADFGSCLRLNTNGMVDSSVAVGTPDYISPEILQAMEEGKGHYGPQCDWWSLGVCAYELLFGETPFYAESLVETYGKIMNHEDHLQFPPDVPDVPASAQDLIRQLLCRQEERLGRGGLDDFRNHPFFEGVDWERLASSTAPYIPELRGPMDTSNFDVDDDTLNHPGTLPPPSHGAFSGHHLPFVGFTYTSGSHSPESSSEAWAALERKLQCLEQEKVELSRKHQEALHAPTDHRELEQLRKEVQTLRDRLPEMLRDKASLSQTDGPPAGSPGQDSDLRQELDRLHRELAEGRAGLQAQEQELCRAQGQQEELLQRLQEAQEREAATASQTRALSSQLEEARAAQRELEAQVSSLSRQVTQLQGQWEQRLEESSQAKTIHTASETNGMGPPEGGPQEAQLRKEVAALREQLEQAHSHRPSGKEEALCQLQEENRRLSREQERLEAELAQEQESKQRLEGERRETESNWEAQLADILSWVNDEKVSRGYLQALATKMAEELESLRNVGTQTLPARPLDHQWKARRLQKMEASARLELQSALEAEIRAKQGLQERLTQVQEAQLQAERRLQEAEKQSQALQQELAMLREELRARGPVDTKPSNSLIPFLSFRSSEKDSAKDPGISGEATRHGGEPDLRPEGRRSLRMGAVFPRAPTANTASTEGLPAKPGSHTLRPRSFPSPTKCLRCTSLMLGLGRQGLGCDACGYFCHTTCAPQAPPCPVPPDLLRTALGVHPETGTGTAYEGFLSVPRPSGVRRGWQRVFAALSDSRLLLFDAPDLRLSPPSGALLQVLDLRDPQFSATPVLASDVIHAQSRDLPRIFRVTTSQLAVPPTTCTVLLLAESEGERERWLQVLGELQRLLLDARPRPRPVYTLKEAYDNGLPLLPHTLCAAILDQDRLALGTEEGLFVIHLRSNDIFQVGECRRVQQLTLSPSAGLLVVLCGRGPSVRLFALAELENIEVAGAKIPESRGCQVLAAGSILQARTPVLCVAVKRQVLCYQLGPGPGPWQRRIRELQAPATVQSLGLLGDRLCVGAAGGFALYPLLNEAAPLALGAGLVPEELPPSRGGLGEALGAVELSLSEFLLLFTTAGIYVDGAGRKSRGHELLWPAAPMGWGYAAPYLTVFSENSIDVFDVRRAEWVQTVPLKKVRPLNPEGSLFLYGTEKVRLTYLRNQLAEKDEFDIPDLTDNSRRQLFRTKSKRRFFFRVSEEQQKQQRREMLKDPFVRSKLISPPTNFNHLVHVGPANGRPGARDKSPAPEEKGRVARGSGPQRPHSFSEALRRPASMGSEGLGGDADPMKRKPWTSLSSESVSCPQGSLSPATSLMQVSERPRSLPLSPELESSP", "experiment": "Inhibition of wild-type human partial length DMPK2 (S46 to S408 residues) expressed in bacterial expression system at 10 uM by Kinomescan method relative to control"}, "[22]": {"molecular_target": "Cyclin-dependent kinase 19 (Homo sapiens) (UniProt Q9BWU1)", "experiment": "Inhibition of wild-type human partial length CDK11 (M1 to N360 residues) expressed in bacterial expression system at 10 uM by Kinomescan method relative to control"}, "[23]": {"molecular_target": "Ribosomal protein S6 kinase alpha-4 (Homo sapiens) (UniProt O75676)", "experiment": "Inhibition of wild-type human partial length C-terminal RPS6KA4 kinase domain 2 (M375 to T705 residues) expressed in mammalian expression system at 10 uM by Kinomescan method relative to control"}, "[24]": {"tested_on": "Epidermal growth factor receptor (Homo sapiens), P00533 [L858R,T790M]", "sequence (P00533 whole entry T790M/L858R, looked up, the tested form may be a part)": "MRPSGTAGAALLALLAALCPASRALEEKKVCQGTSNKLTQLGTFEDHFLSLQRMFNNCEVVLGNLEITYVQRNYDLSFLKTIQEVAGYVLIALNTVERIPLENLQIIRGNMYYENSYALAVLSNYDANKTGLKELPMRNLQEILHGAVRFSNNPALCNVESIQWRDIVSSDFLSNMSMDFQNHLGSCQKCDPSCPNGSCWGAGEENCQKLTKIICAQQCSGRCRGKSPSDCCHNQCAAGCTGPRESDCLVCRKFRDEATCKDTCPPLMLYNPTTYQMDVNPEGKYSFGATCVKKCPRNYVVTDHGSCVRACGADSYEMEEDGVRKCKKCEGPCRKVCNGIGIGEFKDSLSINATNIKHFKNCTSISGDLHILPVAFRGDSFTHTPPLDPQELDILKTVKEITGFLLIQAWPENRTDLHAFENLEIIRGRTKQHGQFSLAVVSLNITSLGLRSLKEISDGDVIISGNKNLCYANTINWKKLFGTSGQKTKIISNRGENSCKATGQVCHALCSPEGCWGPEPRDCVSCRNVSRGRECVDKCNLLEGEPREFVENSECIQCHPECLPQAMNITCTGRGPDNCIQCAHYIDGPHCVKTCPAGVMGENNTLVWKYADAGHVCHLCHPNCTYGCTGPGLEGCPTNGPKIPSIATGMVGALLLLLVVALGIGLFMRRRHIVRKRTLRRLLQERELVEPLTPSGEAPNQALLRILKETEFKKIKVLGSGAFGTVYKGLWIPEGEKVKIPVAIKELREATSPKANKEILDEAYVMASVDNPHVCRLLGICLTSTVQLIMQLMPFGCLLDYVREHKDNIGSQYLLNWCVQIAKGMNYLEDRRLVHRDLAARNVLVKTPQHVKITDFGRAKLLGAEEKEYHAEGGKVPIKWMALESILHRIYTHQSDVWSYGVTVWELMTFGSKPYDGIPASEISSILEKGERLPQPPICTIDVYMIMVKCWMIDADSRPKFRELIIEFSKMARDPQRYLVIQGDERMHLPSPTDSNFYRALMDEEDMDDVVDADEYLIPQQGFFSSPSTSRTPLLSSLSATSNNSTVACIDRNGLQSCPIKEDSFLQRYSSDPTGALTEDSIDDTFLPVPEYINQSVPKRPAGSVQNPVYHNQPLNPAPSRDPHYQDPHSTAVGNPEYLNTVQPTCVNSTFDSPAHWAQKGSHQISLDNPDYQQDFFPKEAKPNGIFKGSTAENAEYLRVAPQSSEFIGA", "experiment": "Inhibition of human partial length EGFR L858R/T790M double mutant (R669 to V1011 residues) expressed in mammalian expression system at 10 uM by Kinomescan method relative to control"}, "[25]": {"molecular_target": "Mitogen-activated protein kinase 13 (Homo sapiens) (UniProt O15264)", "experiment": "Inhibition of wild-type human full length p38-delta (M1 to L365 residues) expressed in bacterial expression system at 10 uM by Kinomescan method relative to control"}, "[26]": {"molecular_target": "cGMP-dependent protein kinase 1 (Homo sapiens) (UniProt Q13976)", "experiment": "Inhibition of wild-type human partial length PRKG1 (L339 to F686 residues) expressed in bacterial expression system at 10 uM by Kinomescan method relative to control"}, "[27]": {"molecular_target": "Myosin-IIIa (Homo sapiens) (UniProt Q8NEV4)", "experiment": "Inhibition of wild-type human partial length MYO3A (M1 to K338 residues) expressed in bacterial expression system at 10 uM by Kinomescan method relative to control"}}}
{"smiles": "O=C(Nc1cccc([C@@H]2CN(c3ncnc4[nH]ccc34)CCN2CCO)c1)Nc1c(F)cccc1N1CCCC1", "values": [{"measurement": "inhibition", "setting": "[1]", "value": 85, "unit": "%"}, {"measurement": "inhibition", "setting": "[2]", "value": 79, "unit": "%"}, {"measurement": "inhibition", "setting": "[3]", "value": 81, "unit": "%"}, {"measurement": "inhibition", "setting": "[4]", "value": 62, "unit": "%"}, {"measurement": "inhibition", "setting": "[5]", "value": 93, "unit": "%"}, {"measurement": "inhibition", "setting": "[6]", "value": 85, "unit": "%"}, {"measurement": "inhibition", "setting": "[7]", "value": 92, "unit": "%"}, {"measurement": "inhibition", "setting": "[8]", "value": 92, "unit": "%"}, {"measurement": "inhibition", "setting": "[9]", "value": 100, "unit": "%"}, {"measurement": "inhibition", "setting": "[10]", "value": 83, "unit": "%"}, {"measurement": "inhibition", "setting": "[11]", "value": 99, "unit": "%"}]}
{"smiles": "O=C(Nc1cccc([C@H]2CCCN(c3ncnc4[nH]ccc34)C2)c1)Nc1ccccc1N1CCCC1", "values": [{"measurement": "inhibition", "setting": "[12]", "value": 98, "unit": "%"}, {"measurement": "inhibition", "setting": "[13]", "value": 88, "unit": "%"}, {"measurement": "inhibition", "setting": "[14]", "value": 99, "unit": "%"}, {"measurement": "inhibition", "setting": "[15]", "value": 83, "unit": "%"}, {"measurement": "inhibition", "setting": "[16]", "value": 100, "unit": "%"}, {"measurement": "inhibition", "setting": "[17]", "value": 7.2, "unit": "%"}, {"measurement": "inhibition", "setting": "[18]", "value": 81, "unit": "%"}, {"measurement": "inhibition", "setting": "[19]", "value": 78, "unit": "%"}, {"measurement": "inhibition", "setting": "[20]", "value": 66, "unit": "%"}, {"measurement": "inhibition", "setting": "[21]", "value": 62, "unit": "%"}, {"measurement": "inhibition", "setting": "[22]", "value": 37, "unit": "%"}, {"measurement": "inhibition", "setting": "[23]", "value": 44, "unit": "%"}, {"measurement": "inhibition", "setting": "[24]", "value": 83, "unit": "%"}, {"measurement": "inhibition", "setting": "[25]", "value": 100, "unit": "%"}, {"measurement": "inhibition", "setting": "[26]", "value": 44, "unit": "%"}, {"measurement": "inhibition", "setting": "[27]", "value": 52, "unit": "%"}]}
